Legend:
Experiment in all cases: cells
NCI-H1355 = type: functional, cell-based, Homo sapiens; conditions: Homo sapiens, NCI-H1355;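 also: growth inhibition of human NCI-H1355 cells, read out by a cell viability assay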
Description: SANGER: Inhibition of human NCI-H1355 cell growth in a cell viability assay.

KMOE-2 = type: functional, cell-based, Homo sapiens; conditions: Homo sapiens, KMOE-2;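 also: growth inhibition of human KMOE-2 cells, read out with a cell viability assay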
Description: SANGER: Inhibition of human KMOE-2 cell growth in a cell viability assay.

CTB-1 = type: functional, cell-based, Homo sapiens; conditions: Homo sapiens, CTB-1
Description: SANGER: Inhibition of human CTB-1 cell growth in a cell viability assay.

COLO-824 = type: functional, cell-based, Homo sapiens; conditions: Homo sapiens, COLO-824
Description: SANGER: Inhibition of human COLO-824 cell growth in a cell viability assay.

TE-5 = type: functional, cell-based, Homo sapiens; conditions: Homo sapiens, TE-5;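 also: inhibition of cell growth, read out by a cell viability assay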
Description: SANGER: Inhibition of human TE-5 cell growth in a cell viability assay.

NOMO-1 = type: functional, cell-based, Homo sapiens; conditions: Homo sapiens, NOMO-1;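 also: growth inhibition of human NOMO-1 cells measured by a cell viability assay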
Description: SANGER: Inhibition of human NOMO-1 cell growth in a cell viability assay.

HCC2157 = type: functional, cell-based, Homo sapiens; conditions: Homo sapiens, HCC2157;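 also: growth inhibition of the cancer cell line, read out as cell viability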
Description: SANGER: Inhibition of human HCC2157 cell growth in a cell viability assay.

SK-N-FI = type: functional, cell-based, Homo sapiens; conditions: Homo sapiens, SK-N-FI;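 also: cell viability assay measuring growth inhibition of human SK-N-FI cells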
Description: SANGER: Inhibition of human SK-N-FI cell growth in a cell viability assay.

MN-60 = type: functional, cell-based, Homo sapiens; conditions: Homo sapiens, MN-60;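 also: growth inhibition of the MN-60 cell line, determined with a cell viability assay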
Description: SANGER: Inhibition of human MN-60 cell growth in a cell viability assay.

KARPAS-299 = type: functional, cell-based, Homo sapiens; conditions: Homo sapiens, KARPAS-299
Description: SANGER: Inhibition of human KARPAS-299 cell growth in a cell viability assay.

MFH-ino = type: functional, cell-based, Homo sapiens; conditions: Homo sapiens, MFH-ino;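 also: growth inhibition of human MFH-ino cells, read out by a cell viability assay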
Description: SANGER: Inhibition of human MFH-ino cell growth in a cell viability assay.

BB65-RCC = type: functional, cell-based, Homo sapiens; conditions: Homo sapiens, BB65-RCC;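 also: growth inhibition of the cell line, measured with a cell viability assay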
Description: SANGER: Inhibition of human BB65-RCC cell growth in a cell viability assay.

MZ1-PC = type: functional, cell-based, Homo sapiens; conditions: Homo sapiens, MZ1-PC;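 also: cell viability assay measuring growth inhibition of human MZ1-PC cells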
Description: SANGER: Inhibition of human MZ1-PC cell growth in a cell viability assay.

MPP-89 = type: functional, cell-based, Homo sapiens; conditions: Homo sapiens, MPP-89;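 also: growth inhibition of human MPP-89 cells, read out with a cell viability assay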
Description: SANGER: Inhibition of human MPP-89 cell growth in a cell viability assay.

SBC-1 = type: functional, cell-based, Homo sapiens; conditions: Homo sapiens, SBC-1;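 also: cell viability assay measuring growth inhibition of the SBC-1 cell line, IC50 being the concentration that halves growth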
Description: SANGER: Inhibition of human SBC-1 cell growth in a cell viability assay.

A704 = type: functional, cell-based, Homo sapiens; conditions: Homo sapiens, A704;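 also: growth inhibition of human A704 cells, read out with a cell viability assay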
Description: SANGER: Inhibition of human A704 cell growth in a cell viability assay.

MHH-NB-11 = type: functional, cell-based, Homo sapiens; conditions: Homo sapiens, MHH-NB-11;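 also: growth inhibition of human MHH-NB-11 cells, read out by a cell viability assay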
Description: SANGER: Inhibition of human MHH-NB-11 cell growth in a cell viability assay.

COR-L88 = type: functional, cell-based, Homo sapiens; conditions: Homo sapiens, COR-L88;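 also: growth inhibition of COR-L88 cells, read out with a cell viability assay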
Description: SANGER: Inhibition of human COR-L88 cell growth in a cell viability assay.

RS4-11 = type: functional, cell-based, Homo sapiens; conditions: Homo sapiens, RS4-11;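 also: growth inhibition of RS4-11 cells, read out by a cell viability assay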
Description: SANGER: Inhibition of human RS4-11 cell growth in a cell viability assay.

DMS-114 = type: functional, cell-based, Homo sapiens; conditions: Homo sapiens, DMS-114
BE-13 = type: functional, cell-based, Homo sapiens; conditions: Homo sapiens, BE-13;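 also: growth inhibition of human BE-13 cells, measured with a cell viability assay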
Description: SANGER: Inhibition of human BE-13 cell growth in a cell viability assay.

VA-ES-BJ = type: functional, cell-based, Homo sapiens; conditions: Homo sapiens, VA-ES-BJ;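 also: growth inhibition of the VA-ES-BJ cell line, read out by a cell viability assay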
Description: SANGER: Inhibition of human VA-ES-BJ cell growth in a cell viability assay.

LAMA-84 = type: functional, cell-based, Homo sapiens; conditions: Homo sapiens, LAMA-84;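 also: growth inhibition of LAMA-84 cells, read out with a cell viability assay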
Description: SANGER: Inhibition of human LAMA-84 cell growth in a cell viability assay.

EW-24 = type: functional, cell-based, Homo sapiens; conditions: Homo sapiens, EW-24;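 also: human EW-24 cancer cell line, growth inhibition read out via a cell viability assay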
Description: SANGER: Inhibition of human EW-24 cell growth in a cell viability assay.

IST-MES1 = type: functional, cell-based, Homo sapiens; conditions: Homo sapiens, IST-MES1;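 also: growth inhibition of IST-MES1 cells, measured with a cell viability assay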
Description: SANGER: Inhibition of human IST-MES1 cell growth in a cell viability assay.

BB49-HNC = type: functional, cell-based, Homo sapiens; conditions: Homo sapiens, BB49-HNC;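 also: cell viability assay read-out, reported as inhibition of BB49-HNC cell growth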
Description: SANGER: Inhibition of human BB49-HNC cell growth in a cell viability assay.

P30-OHK = type: functional, cell-based, Homo sapiens; conditions: Homo sapiens, P30-OHK;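 also: growth inhibition of the P30-OHK cell line, read out with a cell viability assay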
Description: SANGER: Inhibition of human P30-OHK cell growth in a cell viability assay.

U-87 MG = type: functional, cell-based, Homo sapiens, U-87MG ATCC; conditions: Homo sapiens, U-87 MG;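 also: growth inhibition of the cells measured with a viability assay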
Description: SANGER: Inhibition of human U-87-MG cell growth in a cell viability assay.

EW-11 = type: functional, cell-based, Homo sapiens; conditions: Homo sapiens, EW-11;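 also: growth inhibition of human EW-11 cells, measured with a cell viability assay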
Description: SANGER: Inhibition of human EW-11 cell growth in a cell viability assay.

HOP-62 = type: functional, cell-based, Homo sapiens; conditions: Homo sapiens, HOP-62;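 also: cell growth inhibition determined with a viability assay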
Description: SANGER: Inhibition of human HOP-62 cell growth in a cell viability assay.

NCI-N87 = type: functional, cell-based, Homo sapiens; conditions: Homo sapiens, NCI-N87;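 also: growth inhibition of human NCI-N87 cells, read out with a cell viability assay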
Description: SANGER: Inhibition of human NCI-N87 cell growth in a cell viability assay.

QIMR-WIL = type: functional, cell-based, Homo sapiens; conditions: Homo sapiens, QIMR-WIL;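 also: growth inhibition of QIMR-WIL cells, read out with a cell viability assay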
Description: SANGER: Inhibition of human QIMR-WIL cell growth in a cell viability assay.

MSTO-211H = type: functional, cell-based, Homo sapiens; conditions: Homo sapiens, MSTO-211H
Description: SANGER: Inhibition of human MSTO-211H cell growth in a cell viability assay.

NCI-H747 = type: functional, cell-based, Homo sapiens; conditions: Homo sapiens, NCI-H747;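 also: growth inhibition of human NCI-H747 cells, read out by a cell viability assay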
Description: SANGER: Inhibition of human NCI-H747 cell growth in a cell viability assay.

TE-12 = type: functional, cell-based, Homo sapiens; conditions: Homo sapiens, TE-12;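 also: growth inhibition of TE-12 cells, read out by a cell viability assay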
Description: SANGER: Inhibition of human TE-12 cell growth in a cell viability assay.

8-MG-BA = type: functional, cell-based, Homo sapiens; conditions: Homo sapiens, 8-MG-BA;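 also: growth inhibition of 8-MG-BA cells, read out with a cell viability assay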
Description: SANGER: Inhibition of human 8-MG-BA cell growth in a cell viability assay.

SK-PN-DW = type: functional, cell-based, Homo sapiens; conditions: Homo sapiens, SK-PN-DW;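 also: growth inhibition measured with a viability assay on these cells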
Description: SANGER: Inhibition of human SK-PN-DW cell growth in a cell viability assay.

MEG-01 = type: functional, cell-based, Homo sapiens; conditions: Homo sapiens, MEG-01;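 also: growth inhibition of MEG-01 cells, read out by a cell viability assay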
Description: SANGER: Inhibition of human MEG-01 cell growth in a cell viability assay.

no-10 = type: functional, cell-based, Homo sapiens; conditions: Homo sapiens;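 also: growth inhibition of no-10 cells, read out with a cell viability assay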
Description: SANGER: Inhibition of human no-10 cell growth in a cell viability assay.

SK-MEL-1 = type: functional, cell-based, Homo sapiens; conditions: Homo sapiens, SK-MEL-1;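 also: growth inhibition of human SK-MEL-1 cells, read out by a cell viability assay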
Description: SANGER: Inhibition of human SK-MEL-1 cell growth in a cell viability assay.

KARPAS-45 = type: functional, cell-based, Homo sapiens; conditions: Homo sapiens, KARPAS-45;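 also: inhibition of cell line growth, read out through a viability assay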
Description: SANGER: Inhibition of human KARPAS-45 cell growth in a cell viability assay.

NCI-H2126 = type: functional, cell-based, Homo sapiens; conditions: Homo sapiens, NCI-H2126;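 also: growth inhibition of the cancer cell line, determined with a cell viability readout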
Description: SANGER: Inhibition of human NCI-H2126 cell growth in a cell viability assay.

OS-RC-2 = type: functional, cell-based, Homo sapiens; conditions: Homo sapiens, OS-RC-2;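 also: growth inhibition of human OS-RC-2 cells, measured by a cell viability assay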
Description: SANGER: Inhibition of human OS-RC-2 cell growth in a cell viability assay.

BT-474 = type: functional, cell-based, Homo sapiens; conditions: Homo sapiens, BT-474
Description: SANGER: Inhibition of human BT-474 cell growth in a cell viability assay.

NH-12 = type: functional, cell-based, Homo sapiens; conditions: Homo sapiens, NH-12;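 also: growth inhibition of NH-12 cells, read out with a cell viability assay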
Description: SANGER: Inhibition of human NH-12 cell growth in a cell viability assay.

C2BBe1 = type: functional, cell-based, Homo sapiens; conditions: Homo sapiens, C2BBe1;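 also: growth inhibition of C2BBe1 cells, read out through a viability assay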
Description: SANGER: Inhibition of human C2BBe1 cell growth in a cell viability assay.

NCI-H1395 = type: functional, cell-based, Homo sapiens; conditions: Homo sapiens, NCI-H1395;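 also: cell viability assay read-out quantifying reduced proliferation of human NCI-H1395 cells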
Description: SANGER: Inhibition of human NCI-H1395 cell growth in a cell viability assay.

D-392MG = type: functional, cell-based, Homo sapiens; conditions: Homo sapiens, D-392MG

In the case of `CCC/C=C/C=C/C(=O)O[C@H]1/C(=C/C(=O)OC)C[C@H]2C[C@H]([C@@H](C)O)OC(=O)C[C@H](O)C[C@@H]3C[C@H](OC(C)=O)C(C)(C)[C@](O)(C[C@@H]4C/C(=C/C(=O)OC)C[C@H](/C=C/C(C)(C)[C@]1(O)O2)O4)O3` [BRYOSTATIN 1], the IC50 (NCI-H1355) is reported as > 0.008 µM, the IC50 (KMOE-2) is reported as > 0.008 µM and the IC50 (CTB-1) is reported as > 0.008 µM. The IC50 (COLO-824) was > 0.008 µM, the IC50 (TE-5) was > 0.008 µM and the IC50 (NOMO-1) was > 0.008 µM. For the same molecule, the IC50 (HCC2157) was > 0.008 µM, the IC50 (SK-N-FI) was > 0.008 µM and the IC50 (MN-60) was > 0.008 µM. For the same molecule, the IC50 (KARPAS-299) was > 0.008 µM, the IC50 (MFH-ino) was > 0.008 µM and the IC50 (BB65-RCC) was > 0.008 µM. The IC50 (MZ1-PC) was > 0.008 µM, the IC50 (MPP-89) was > 0.008 µM and the IC50 (SBC-1) was > 0.008 µM. For the same molecule, the IC50 (A704) was > 0.008 µM, the IC50 (MHH-NB-11) was > 0.008 µM and the IC50 (COR-L88) was > 0.008 µM. For the same molecule, the IC50 (RS4-11) was > 0.008 µM, the IC50 (DMS-114) was > 0.008 µM and the IC50 (BE-13) was > 0.008 µM. The IC50 (VA-ES-BJ) was > 0.008 µM, the IC50 (LAMA-84) was > 0.008 µM and the IC50 (EW-24) was > 0.008 µM. The IC50 (IST-MES1) was > 0.008 µM, the IC50 (BB49-HNC) was > 0.008 µM and the IC50 (P30-OHK) was > 0.008 µM. The IC50 (U-87 MG) was > 0.008 µM, the IC50 (EW-11) was > 0.008 µM and the IC50 (HOP-62) was > 0.008 µM. For the same molecule, the IC50 (NCI-N87) was > 0.008 µM, the IC50 (QIMR-WIL) was > 0.008 µM and the IC50 (MSTO-211H) was > 0.008 µM. For the same molecule, the IC50 (NCI-H747) was > 0.008 µM, the IC50 (TE-12) was > 0.008 µM and the IC50 (8-MG-BA) was > 0.008 µM. The IC50 (SK-PN-DW) was > 0.008 µM, the IC50 (MEG-01) was > 0.008 µM and the IC50 (no-10) was > 0.008 µM. For the same molecule, the IC50 (SK-MEL-1) was > 0.008 µM, the IC50 (KARPAS-45) was > 0.008 µM and the IC50 (NCI-H2126) was > 0.008 µM. For the same molecule, the IC50 (OS-RC-2) was > 0.008 µM, the IC50 (BT-474) was > 0.008 µM and the IC50 (NH-12) was > 0.008 µM. For the same molecule, the IC50 (C2BBe1) was > 0.008 µM, the IC50 (NCI-H1395) was > 0.008 µM and the IC50 (D-392MG) was > 0.008 µM.
Molecule `COc1cccc2c1C(=O)c1c(O)c3c(c(O)c1C2=O)C[C@@](O)(C(=O)CO)C[C@@H]3O[C@H]1C[C@H](N)[C@H](O)[C@H](C)O1` [DOXORUBICIN] has an IC50 (NCI-H1355) of 0.152 µM, an IC50 (KMOE-2) of 0.576 µM and an IC50 (CTB-1) of 0.0642 µM. For the same molecule, the IC50 (COLO-824) was > 1.02 µM, the IC50 (TE-5) was 0.0375 µM and the IC50 (NOMO-1) was 0.224 µM. The IC50 (HCC2157) was 0.064 µM, the IC50 (SK-N-FI) was > 1.02 µM and the IC50 (MN-60) was 0.605 µM. For the same molecule, the IC50 (KARPAS-299) was > 1.02 µM, the IC50 (MFH-ino) was 0.00399 µM and the IC50 (BB65-RCC) was 0.149 µM. It also gave an IC50 (MZ1-PC) of 0.0238 µM, an IC50 (MPP-89) of 0.393 µM and an IC50 (SBC-1) of 0.156 µM. For the same molecule, the IC50 (A704) was > 1.02 µM, the IC50 (MHH-NB-11) was 0.22 µM and the IC50 (COR-L88) was > 1.02 µM. The IC50 (RS4-11) was 0.0191 µM, the IC50 (DMS-114) was 0.396 µM and the IC50 (BE-13) was 0.051 µM. It also gave an IC50 (VA-ES-BJ) of 0.0334 µM, an IC50 (LAMA-84) of 0.437 µM and an IC50 (EW-24) of 0.97 µM. For the same molecule, the IC50 (IST-MES1) was 0.323 µM, the IC50 (BB49-HNC) was > 1.02 µM and the IC50 (P30-OHK) was 0.0576 µM. It also gave an IC50 (U-87 MG) of 0.346 µM, an IC50 (EW-11) of 0.342 µM and an IC50 (HOP-62) of 0.0359 µM. The IC50 (NCI-N87) was 0.48 µM, the IC50 (QIMR-WIL) was 0.0207 µM and the IC50 (MSTO-211H) was > 1.02 µM. For the same molecule, the IC50 (NCI-H747) was 0.135 µM, the IC50 (TE-12) was 0.0811 µM and the IC50 (8-MG-BA) was 0.0221 µM. The IC50 (SK-PN-DW) was 0.0257 µM, the IC50 (MEG-01) was 0.177 µM and the IC50 (no-10) was 0.16 µM. For the same molecule, the IC50 (SK-MEL-1) was > 1.02 µM, the IC50 (KARPAS-45) was > 1.02 µM and the IC50 (NCI-H2126) was 0.192 µM. The IC50 (OS-RC-2) was 0.182 µM, the IC50 (BT-474) was 0.779 µM and the IC50 (NH-12) was 0.076 µM. For the same molecule, the IC50 (C2BBe1) was > 1.02 µM, the IC50 (NCI-H1395) was > 1.02 µM and the IC50 (D-392MG) was 0.249 µM.
With `Nc1ccn([C@@H]2O[C@H](CO)[C@@H](O)C2(F)F)c(=O)n1` [GEMCITABINE] the IC50 (NCI-H1355) was < 0.004 µM, the IC50 (KMOE-2) was 0.155 µM and the IC50 (CTB-1) was 0.0534 µM. The IC50 (COLO-824) was > 1.02 µM, the IC50 (TE-5) was < 0.004 µM and the IC50 (NOMO-1) was 0.0287 µM. The IC50 (HCC2157) was > 1.02 µM, the IC50 (SK-N-FI) was > 1.02 µM and the IC50 (MN-60) was > 1.02 µM. The IC50 (KARPAS-299) was 0.252 µM, the IC50 (MFH-ino) was 0.00166 µM and the IC50 (BB65-RCC) was < 0.004 µM. The IC50 (MZ1-PC) was 0.254 µM, the IC50 (MPP-89) was 0.692 µM and the IC50 (SBC-1) was 0.166 µM. The IC50 (A704) was 0.0538 µM, the IC50 (MHH-NB-11) was 0.386 µM and the IC50 (COR-L88) was > 1.02 µM. The IC50 (RS4-11) was < 0.004 µM, the IC50 (DMS-114) was > 1.02 µM and the IC50 (BE-13) was 0.00521 µM. The IC50 (VA-ES-BJ) was 0.00526 µM, the IC50 (LAMA-84) was 0.115 µM and the IC50 (EW-24) was > 1.02 µM. The IC50 (IST-MES1) was 0.774 µM, the IC50 (BB49-HNC) was > 1.02 µM and the IC50 (P30-OHK) was 0.00146 µM. The IC50 (U-87 MG) was 0.191 µM, the IC50 (EW-11) was 0.434 µM and the IC50 (HOP-62) was 0.223 µM. For the same molecule, the IC50 (NCI-N87) was 0.333 µM, the IC50 (QIMR-WIL) was < 0.004 µM and the IC50 (MSTO-211H) was > 1.02 µM. The IC50 (NCI-H747) was 0.0423 µM, the IC50 (TE-12) was > 1.02 µM and the IC50 (8-MG-BA) was 0.00593 µM. For the same molecule, the IC50 (SK-PN-DW) was < 0.004 µM, the IC50 (MEG-01) was 0.00127 µM and the IC50 (no-10) was 0.174 µM. For the same molecule, the IC50 (SK-MEL-1) was > 1.02 µM, the IC50 (KARPAS-45) was > 1.02 µM and the IC50 (NCI-H2126) was > 1.02 µM. For the same molecule, the IC50 (OS-RC-2) was 0.00668 µM, the IC50 (BT-474) was > 1.02 µM and the IC50 (NH-12) was 0.0255 µM. The IC50 (C2BBe1) was > 1.02 µM, the IC50 (NCI-H1395) was > 1.02 µM and the IC50 (D-392MG) was 1.02 µM.
